Values of other authors, collected in patent US20060281913A1, “Process for the production of crystalline xylose from sugar cane bagasse, crystalline xylose obtained by said process, process for the production of xylitol from the said xylose and crystalline xylitol obtained thereby” (priority 2003, published 2006).
Like-named read-outs stand apart in the source and are kept apart here.

Columns and labels:
[1] = relative to sucrose

| Compound | sweetening power ([1]; in words) | solubility in methanol, ethanol and isopropanol | solubility in water | sweetening power ([1]; data collected from the literature) |
| --- | --- | --- | --- | --- |
| OC[C@@H](O)[C@H](O)[C@@H](O)CO [crystalline xylitol, xylitol] | equivalent to that of sucrose | low solubility | high solubility | – |
| O=C[C@H](O)[C@@H](O)[C@H](O)CO [crystalline xylose, xylose] | – | sparingly soluble | highly soluble | ~67 % that of sucrose |
